Assay results: patent US20070231403A1, “Natural composite preservatives” (priority 2006, published 2007)

Assay: DPPH radical scavenging (antioxidant) assay
Format: biochemical
Conditions: vitamin C 1 mM
Description: The antioxidant activity of the natural composite preservatives was analyzed with DPPH (1,1-diphenyl-2-picrylhydrazyl). DPPH is a color radical generally used in determining radical scavenging capacity. Test samples were dissolved in 4 ml of distilled water or a solvent and mixed with 1 ml of 100 μM DPPH before incubation at room temperature for 30 min. Absorbance at 517 nm was read to calculate the amount of remaining DPPH (blank: distilled water or solvent only, control: DPPH alone in distilled water or solvent). Radical Scavenging Activity (RSA) was expressed as percentages of the test groups relative to the control, as calculated by the following equation 1.

Compound `O=C1O[C@H]([C@@H](O)CO)C(O)=C1O` [vitamin C] has an RSA of 35%.
